Source: patent publication US6773897B2, “Method of predicting the clinical response to chemotherapeutic treatment with alkylating agents” (The Johns Hopkins University School of Medicine, priority 2000, dated 2004)
Where two headings read alike, the source gives them in different places.

Experiments:
MGMT [1] = molecular target: T1, MGMT (Homo sapiens, UniProt P16455); details: substrate for MGMT; cited from earlier work
T1 sequence (P16455 1-207): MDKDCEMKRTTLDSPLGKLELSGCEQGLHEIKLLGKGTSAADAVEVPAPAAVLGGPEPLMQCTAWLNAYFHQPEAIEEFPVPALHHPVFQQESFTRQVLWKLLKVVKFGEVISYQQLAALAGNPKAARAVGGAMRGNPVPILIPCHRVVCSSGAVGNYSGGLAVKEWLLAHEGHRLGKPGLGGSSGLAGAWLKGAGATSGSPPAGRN

MGMT [2] = molecular target: T1, MGMT; details: cited from earlier work
[3] = tested on: grade III or IV gliomas (anaplastic astrocytoma, glioblastoma multiforme); assay: Clinical response, survival and time to progression of gliomas treated with carmustine, by MGMT promoter methylation status; assay type: in vivo, human
Experimental: The annealing temperature was 59° C.
Contingency tables were analyzed by Fisher's exact test.
Specimens of brain tumors from 47 consecutive subjects referred to the University Hospital of Navarre, in Pamplona, Spain, between April 1993 and November 1998 were studied. All the subjects provided written informed consent. […] Subjects were 38 to 70 years old (median age at diagnosis, 55 years); 30 were men, and 17 were women. Tumor specimens were obtained by resection or biopsy performed before the initiation of treatment with radiation and chemotherapy and were immediately frozen and stored at −80° C. All subjects were treated with intraarterial cisplatin (50 mg per square meter of body-surface area), whole-brain radiotherapy, and a median of three courses of intravenous carmustine (1,3-bis(2-chloroethyl)-1-nitrosourea, or BCNU; 100 mg per square meter) given at four-week intervals. Fifteen of the subjects also underwent autologous bone marrow transplantation plus high-dose chemotherapy treatment with three doses of intravenous carmustine (300 mg per square meter) per day and one dose of intraarterial cisplatin (100 mg)
The response to treatment was evaluated after the subjects had completed therapy. A complete response was defined as the absence of any evidence of the tumor on computed tomographic (CT) and magnetic resonance imaging (MRI) scans, with no need for steroid treatment and an improvement in the subject's general condition. Subjects with persistent CT abnormalities but with more than a 50 percent reduction in both the diameter and the volume of the tumor, a reduced need for steroid treatment, and a stabilized neurologic condition were considered to have a partial response. The disease was considered to have progressed if both the diameter and volume of the tumor increased by 25 percent or more of the initial measurements, if a new lesion was evident on CT or MRI scans, or if the subject's neurologic condition worsened and required an increased dose of steroids.
Forty-seven newly diagnosed grade III or IV gliomas (classified as anaplastic astrocytoma in 18 subjects and as glioblastoma multiforme in 29) were analyzed. Methylation of the MGMT promoter was found in 19 of the 47 tumors (40 percent) a frequency similar to that found in a previous study (Estellar, 1999, supra) and consistent with that in other reports (Silber et al., Cancer Res 1993; 53:3416-3420; and Silber et al., Cancer Res 1998; 58:1068-1073). Methylation was not associated with the subject's age, the Karnofsky score for performance status, or the grade of the tumor (P>0.3 for each comparison).

[4] = tested on: diffuse large B-cell lymphoma (B-DLCL)
Experimental: DNA was extracted according to standard protocols known to those of skill in the art (see, e.g., Sambrook et al., Molecular Cloning: a Laboratory Manual, 2nd Ed.; Cold Spring Harbor Laboratory Press, Plainview, N.Y., 1998, herein incorporated by reference). Methylation patterns in the CpG island of MGMT were determined by chemical modification of unmethylated, but not methylated, cytosines to uracil. Methylation-specific polymerase chain reaction (PCR) was performed with primers specific for either methylated or the modified unmethylated DNA, as previously described (Esteller, et al. Cancer Res 1999; 59:793-797; incorporated herein by reference in its entirety; and Herman et al. Proc Natl Acad Sci USA 1996;93:9821-9826; incorporated herein by reference in its entirety). DNA (1 μg) was denatured with sodium hydroxide and modified with sodium bisulfite. DNA samples were then purified with the Wizard DNA purification resin (Promega, Madison, Wis.), again treated with sodium hydroxide, precipitated with ethanol, and resuspended in water. Primer sequences for the unmethylated reaction were 5′[…]3′ (forward primer; SEQ ID NO:1) and 5′[…]3′ (reverse primer; SEQ ID NO:2), and for the methylated reaction they were 5′[…]3′ (forward primer; SEQ ID NO:3) and 5′[…]3′ (reverse primer; SEQ ID NO:4). The annealing temperature was 59° C. Placental DNA treated in vitro with Sss I methyltransferase (New England Biolabs, Beverly, Mass.) was used as a positive control for methylated alleles of MGMT, and DNA from normal lymphocytes was used as a negative control. Controls without DNA were used for each set of methylation-specific PCR assays. Ten microliters of each 50-μl methylation-specific PCR product was loaded directly onto nondenaturing 6 percent polyacrylamide gels, stained with ethidium bromide, and examined under ultraviolet illumination.
Continuous variables were compared with the use of Student's t-test. Contingency tables were analyzed by Fisher's exact test. Disease-free and overall survival curves were estimated by the Kaplan-Meier method and were compared with the use of the log-rank test. Multivariate survival analyses were performed with the Cox proportional-hazards model, and proportional-hazards assumptions were checked with the use of Schoenfeld residuals and graphic methods. Descriptive or stratified analyses always preceded parametric modeling in order to confirm that the assumptions underlying the models were met. The results are reported as two-sided P values with 95 percent confidence intervals. Analyses were performed with the use of JMP software (version 3.1, SAS Institute, Cary, N.C.) and Stata software (version 6.0, Stata, College Station, Tex.).
Clinical follow-up was obtained until Aug. 31, 1999 or until death. […] Diagnosis was based on histopathology, immunophenotypic analysis of cell surface markers, and immunogenotypic analysis of immunoglobulin gene rearrangement. The histopathologic definition of B-DLCL was according to the REAL classification (Harris N L, et al., Blood. 1994;84:1361-92). Subjects positive for human immunodeficiency virus were not included in the study. Staging included routine blood chemistry tests; blood cell counts and differential; EKG; chest x-ray; computed tomography of chest, abdomen and pelvis; and bilateral bone marrow biopsy in all subjects. Disease stage was assessed according to Ann Arbor criteria (Carbone P P, et al., Cancer Res. 1971;31:1860-1). The International Prognostic […] (IPI) was calculated as described (The International Non-Hodgkin's Lymphoma Prognostic Factors Project. A predictive model for aggressive non-Hodgkin's lymphoma. N Engl J Med. 1993;329:987-94), with subjects classified as Low, Low-Intermediate, High-Intermediate, and High risk.
Treatment varied, depending on stage of disease, date of diagnosis, institution and prognostic factors.

[5] = subjects with MGMT methylation (N=30)
[6] = subjects without methylation (N=54)

In the case of `Nc1nc(OCc2ccccc2)c2nc[nH]c2n1` [O^6-benzylguanine], the “effect on MGMT enzyme” value (MGMT [1]) is listed as “inactivates the enzyme”, the “effect on sensitivity to cyclophosphamide metabolites” value (MGMT [2]) is listed as “increase sensitivity to cyclophosphamide metabolites” and the “effect on response to alkyl nitrosoureas” value (MGMT [2]; in vitro and in vivo) is listed as “enhance the response to alkyl nitrosoureas in vitro and in vivo”.
For `O=NN(CCCl)C(=O)NCCCl` [carmustine, 1,3-bis(2-chloroethyl)-1-nitrosourea], the “risk of death, hazard ratio” value ([3]; lack of methylation vs methylation, univariate, 95% CI 3.0 to 42.7) was 9.5, the “Complete response, % (95% CI)” value ([3]; methylated (N=19)) was 11 (1-33) % and the “No Change, % (95% CI)” value ([3]; methylated (N=19)) was 16 (3-38) %. For the same molecule, the “Partial response, % (95% CI)” value ([3]; methylated (N=19)) was 52 (29-76) %, the “Progression, % (95% CI)” value ([3]; methylated (N=19)) was 21 (6-44) % and the “median time to the progression of disease” value ([3]; methylated gliomas) was 21 months. For the same molecule, the “time to progression, hazard ratio associated with nonmethylation” value ([3]; nonmethylation vs methylation, 95% CI 4.4 to 30.8) was 10.8, the “partial or complete response to carmustine” value ([3]; subjects with methylated MGMT promoter tumors (N=19)) was 63% and the “partial or complete response to carmustine” value ([3]; subjects with unmethylated MGMT promoter tumors (N=28)) was 4%. For the same molecule, the “Complete response, % (95% CI)” value ([3]; unmethylated (N=28)) was 0 (0-12) %, the “No Change, % (95% CI)” value ([3]; unmethylated (N=28)) was 14 (4-33) % and the “Partial response, % (95% CI)” value ([3]; unmethylated (N=28)) was 4 (0-18) %. The “Progression, % (95% CI)” value ([3]; unmethylated (N=28)) was 82 (63-94) % and the “median time to the progression of disease” value ([3]; unmethylated gliomas) was 8 months.
With `O=P1(N(CCCl)CCCl)NCCCO1` (stereo not shown) [cyclophosphamide] the “CR (complete remission)” value [4, 5] was 77%, the NR [4, 5] was 10% and the “PR (partial remission)” value [4, 5] was 13%. For the same molecule, the NR [4, 6] was 22%, the “PCR (complete remission)” value [4, 6] was 63% and the “PR (partial remission)” value [4, 6] was 15%. For the same molecule, the “time to death, hazard ratio for non-methylation” value ([4]; univariate, 95% CI 1.2 to 7.5, p=0.01) was 2.8 and the “disease progression, hazard ratio without vs with methylation” value ([4]; univariate, 95% CI 1.3 to 5.8, p=0.005) was 2.6.
